Experimental data taken from ChEMBL document CHEMBL4020769, “Gemcitabine anti-proliferative activity significantly enhanced upon conjugation with cell-penetrating peptides” (Bioorg Med Chem Lett, 2017).
Peptide text beside a SMILES is read from it. * marks the point of attachment. X1 = O=C(CCS*)Nc1ccn([C@@H]2O[C@H](CO)[C@@H](O)C2(F)F)c(=O)n1

Assays:
MKN-28 = assay: Antiproliferative activity against human MKN28 cells after 48 hrs by sulforhodamine B assay; format: functional, cell-based; details: MKN-28, 48 h
Caco-2 = assay: Antiproliferative activity against human Caco2 cells after 48 hrs by sulforhodamine B assay; format: functional, cell-based; details: Caco-2, 48 h
HT-29 [1] = assay: Antiproliferative activity against human HT-29 cells after 48 hrs by sulforhodamine B assay; format: functional, cell-based; details: for IC50: HT-29, 48 h
[2] = Prodrug conversion in pH 7.4 phosphate buffered saline assessed as gemcitabine release by HPLC method
[3] = Half life in pH 7.4 phosphate buffered saline by HPLC method; format: physicochemical
HT-29 [4] = assay: Growth inhibition of human HT-29 cells after 48 hrs by sulforhodamine B assay relative to control; format: functional

Question: With `CC[C@H](C)[C@H](NC(=O)[C@H](CCCCN)NC(=O)[C@@H](NC(=O)[C@H](CCC(N)=O)NC(=O)[C@H](CCCNC(=N)N)NC(=O)[C@@H](N)CS)[C@@H](C)CC)C(=O)N[C@@H](Cc1c[nH]c2ccccc12)C(=O)N[C@@H](Cc1ccccc1)C(=O)N[C@@H](CCC(N)=O)C(=O)N[C@@H](CC(N)=O)C(=O)N[C@@H](CCCNC(=N)N)C(=O)N[C@@H](CCCNC(=N)N)C(=O)N[C@@H](CCSC)C(=O)N[C@@H](CCCCN)C(=O)N[C@@H](Cc1c[nH]c2ccccc12)C(=O)N[C@@H](CCCCN)C(=O)N[C@@H](CCCCN)C(=O)O` as the molecule, how does the IC50 (MKN-28) read?
Answer: Its IC50 is greater than 100 µM.

Question: And the IC50 (Caco-2)?
Answer: The IC50 was greater than 100 µM.

Question: And the IC50 (HT-29 [1])?
Answer: Its IC50 is greater than 100 µM.

Question: What does the source list for `CC[C@H](C)[C@H](NC(=O)[C@H](CCCCN)NC(=O)[C@@H](NC(=O)[C@H](CCC(N)=O)NC(=O)[C@H](CCCNC(=N)N)NC(=O)[C@@H](N)CSSCCC(=O)Nc1ccn([C@@H]2O[C@H](CO)[C@@H](O)C2(F)F)c(=O)n1)[C@@H](C)CC)C(=O)N[C@@H](Cc1c[nH]c2ccccc12)C(=O)N[C@@H](Cc1ccccc1)C(=O)N[C@@H](CCC(N)=O)C(=O)N[C@@H](CC(N)=O)C(=O)N[C@@H](CCCNC(=N)N)C(=O)N[C@@H](CCCNC(=N)N)C(=O)N[C@@H](CCSC)C(=O)N[C@@H](CCCCN)C(=O)N[C@@H](Cc1c[nH]c2ccccc12)C(=O)N[C@@H](CCCCN)C(=O)N[C@@H](CCCCN)C(=O)O`?
Answer: Drug metabolism [2]: Metabolite detected; half-life [3]: 9.6 days; IC50 (MKN-28): 47 µM; IC50 (Caco-2): 67.1 µM; Activity (HT-29 [1]): Dose-dependent effect; IC50 (HT-29 [1]): 47.3 µM

Question: Which results are given for `CC[C@H](C)[C@H](NC(=O)[C@H](CCCNC(=N)N)NC(=O)[C@H](CCCNC(=N)N)NC(=O)[C@H](CCCNC(=N)N)NC(=O)[C@H](CC(C)C)NC(=O)[C@@H](NC(=O)[C@@H](NC(=O)[C@H](CC(C)C)NC(=O)[C@H](CC(C)C)NC(=O)[C@@H](N)CSSCCC(=O)Nc1ccn([C@@H]2O[C@H](CO)[C@@H](O)C2(F)F)c(=O)n1)[C@@H](C)CC)[C@@H](C)CC)C(=O)N[C@@H](CCCNC(=N)N)C(=O)N[C@@H](CCCCN)C(=O)N[C@@H](CCC(N)=O)C(=O)N[C@@H](C)C(=O)N[C@@H](Cc1cnc[nH]1)C(=O)N[C@@H](C)C(=O)N[C@@H](Cc1cnc[nH]1)C(=O)N[C@@H](CO)C(=O)N[C@@H](CCCCN)C(=O)O` (H-C(X1)LLIILRRRIRKQAHAHSK-OH)?
Answer: Drug metabolism [2]: Metabolite detected; half-life [3]: 1.75 days; IC50 (MKN-28): 20.7 µM; IC50 (Caco-2): > 100 µM; Activity (HT-29 [1]): Dose-dependent effect; IC50 (HT-29 [1]): 45.2 µM

Question: Which IC50 (MKN-28) does the source give for `Nc1ccn([C@@H]2O[C@H](CO)[C@@H](O)C2(F)F)c(=O)n1` [GEMCITABINE] here?
Answer: Its IC50 is greater than 100 µM.

Question: What about the IC50 (Caco-2) of the same molecule?
Answer: Its IC50 is greater than 100 µM.

Question: What about the IC50 (HT-29 [1]) of the same molecule?
Answer: Its IC50 is greater than 100 µM.

Question: What about the “growth inhibition (GI)” value (HT-29 [4]) of the same molecule?
Answer: Its value is 30%.

Question: For H-CLLIILRRRIRKQAHAHSK-OH, which IC50 (MKN-28) is on record?
Answer: The IC50 was greater than 100 µM.

Question: And the IC50 (Caco-2)?
Answer: Its IC50 is greater than 100 µM.

Question: What about the IC50 (HT-29 [1]) of the same molecule?
Answer: Its IC50 is greater than 100 µM.
